What was measured:
[1] = tested on: Alternaria brassicae; assay: In vivo test on Alternaria brassicae (leaf spot of crucifers), preventive spray on radish plants; details: radish plants (Pernot variety), contaminated 24 hours after treatment, grading 6 to 7 days after contamination vs control plants, read-out: protection (good, at least 70%, or total); for pest or weed control at 330 ppm: dose of 330 ppm; for pest or weed control at 500 ppm: dose of 500 ppm
Method: (§1) The active ingredients tested are prepared by homogenization in a mixture of acetone/tween/DMSO, then diluted with water to obtain the desired active material concentration.
Radish plants (Pernot variety), sown on a 50/50 peat soil-pozzolana substrate in starter cups and grown at 18-20° C., are treated at the cotyledon stage by spraying with the active ingredient prepared as described above.
(§2) Plants, used as controls, are treated with the mixture of acetone/tween/DMSO/water not containing the active material.
After 24 hours, the plants are contaminated by spraying them with an aqueous suspension of Alternaria brassicae spores (40,000 spores per cm^3). The spores are collected from a 12 to 13 days-old culture.
The contaminated radish plants are incubated for 6-7 days at about 18° C., under a humid atmosphere.
Grading is carried out 6 to 7 days after the contamination, in comparison with the control plants.

[2] = tested on: Botrytis cinerea; assay: In vivo test on Botrytis cinerea (cucumber grey mould), preventive spray on gherkin plants; details: gherkin plants (Vert petit de Paris variety), contaminated 24 hours after treatment, grading 5/7 days after contamination vs control plants, read-out: protection (good, at least 50%, or total); for pest or weed control at 500 ppm: dose of 500 ppm; for pest or weed control at 330 ppm: dose of 330 ppm
Method: The active ingredients tested are prepared by homogenization in a mixture of acetone/tween/DMSO, then diluted with water to obtain the desired active material
Gherkin plants (Vert petit de Paris variety), sown on a 50/50 peat soil-pozzolana substrate in starter cups and grown at 18-20° C., are treated at the cotyledon Z11 stage by spraying with the active ingredient prepared as described above.
as §2
After 24 hours, the plants are contaminated by depositing drops of an aqueous suspension of Botrytis cinerea spores (150,000 spores per ml) on upper surface of the leaves. The spores are collected from a 15-day-old culture and are suspended in a nutrient solution composed of: • 20 g/L of gelatin • 50 g/L of cane sugar • 2 g/L of NH4NO3 • 1 g/L of KH2PO4
The contaminated cucumber plants are settled for 5/7 days in a climatic room at 15-11° C. (day/night) and at 80% relative humidity.
Grading is carried out 5/7 days after the contamination, in comparison with the control plants. Under these conditions, good (at least 50%) or total protection is observed: • at a dose of 500 ppm with the following compounds: C-1, D-12, G-8 and I-1; and • at a dose of 330 ppm with the following compounds: G-2, G-5, G-6 and G11.

[3] = tested on: Pyrenophora teres; assay: In vivo test on Pyrenophora teres (barley net blotch), preventive spray on barley plants; details: 288 h, barley plants (Express variety), contaminated 24 hours after treatment, grading 12 days after contamination vs control plants, read-out: protection (good, at least 70%, or total); for pest or weed control at 330 ppm: dose of 330 ppm
Method: as §1
Barley plants (Express variety), sown on a 50/50 peat soil-pozzolana substrate in starter cups and grown at 12° C., are treated at the 1-leaf stage (10 cm tall) by spraying with the active ingredient prepared as described above. Plants, used as controls, are treated with the mixture of acetone/tween/DMSO/water not containing the active material.
After 24 hours, the plants are contaminated by spraying them with an aqueous suspension of Pyrenophora teres spores (12,000 spores per ml). The spores are collected from a 12-day-old culture. The contaminated barley plants are incubated for 24 hours at about 20° C. and at 100% relative humidity, and then for 12 days at 80% relative humidity.
Grading is carried out 12 days after the contamination, in comparison with the control plants.

Row | SMILES | pest or weed control at 330 ppm [1] [%] | pest or weed control at 330 ppm [3] [%] | further results
1 | Cn1cc(C(=O)NCCc2ccc(F)cc2F)c(C(F)F)n1 [Compound G-8] | ≥ 70 | ≥ 70 | pest or weed control at 500 ppm [2]: ≥ 50%
2 | O=C(NCCc1ccc(Cl)cc1Cl)c1ccsc1I [Compound I-1] | – | – | pest or weed control at 500 ppm [1]: ≥ 70%; pest or weed control at 500 ppm [2]: ≥ 50%
3 | Cc1ccccc1CCNC(=O)c1cn(C)nc1C(F)F [Compound G-12] | ≥ 70 | – | –
4 | Cc1nc(N)sc1C(=O)NCCc1ccc(Cl)cc1Cl [Compound D-8] | – | – | pest or weed control at 500 ppm [1]: ≥ 70%; pest or weed control at 500 ppm ([3]; dose of 500 ppm): ≥ 70%
5 | Cn1cc(C(=O)NCCc2ccccc2Cl)c(C(F)F)n1 [Compound G-2] | ≥ 70 | ≥ 70 | pest or weed control at 330 ppm [2]: ≥ 50%
6 | Cn1cc(C(=O)NCCc2c(Cl)cccc2Cl)c(C(F)F)n1 [Compound G-6] | ≥ 70 | ≥ 70 | pest or weed control at 330 ppm [2]: ≥ 50%
7 | Cc1ccsc1C(=O)NCCc1ccc(Cl)cc1Cl [Compound A-2] | – | – | pest or weed control at 500 ppm [1]: ≥ 70%
8 | Cc1ccc(CCNC(=O)c2sc(C)nc2C(F)(F)F)c(C)c1 [Compound D-2] | ≥ 70 | – | –
9 | Cn1cc(C(=O)NCCc2ccc(C(F)(F)F)cc2Cl)c(C(F)(F)F)n1 [Compound G-15] | ≥ 70 | ≥ 70 | –
10 | Cc1ccccc1CCNC(=O)c1cccnc1Cl [Compound E-2] | ≥ 70 | – | –
11 | Cc1ccccc1CCNC(=O)c1cn(C)nc1C(F)(F)F [Compound G-14] | ≥ 70 | – | –
12 | COc1ccc(OC)c(CCNC(=O)c2cn(C)nc2C(F)F)c1 [Compound G-7] | ≥ 70 | – | –
13 | Cc1nc(C(F)(F)F)c(C(=O)NCCc2ccccc2C)s1 [Compound D-6] | – | ≥ 70 | –
14 | Cc1ccc(C)c(CCNC(=O)c2cn(C)nc2C(F)(F)F)c1 [Compound G-17] | ≥ 70 | – | –
15 | Cn1cc(C(=O)NCCc2ccc(F)cc2F)c(C(F)(F)F)n1 [Compound G-20] | – | ≥ 70 | –
16 | Cc1nc(C(F)(F)F)c(C(=O)NCCc2c(Cl)cccc2Cl)s1 [Compound D-4] | ≥ 70 | – | –
17 | Cc1ccc(CCNC(=O)c2cn(C)nc2C(F)F)c(C)c1 [Compound G-5] | ≥ 70 | ≥ 70 | pest or weed control at 330 ppm [2]: ≥ 50%
18 | Cc1nc(C(F)F)c(C(=O)NCCc2ccc(Cl)cc2Cl)s1 [Compound D-12] | – | – | pest or weed control at 500 ppm [2]: ≥ 50%
19 | COc1cccc(CCNC(=O)c2cn(C)nc2C(F)F)c1OC [Compound G-3] | ≥ 70 | – | –
20 | COc1ccccc1CCNC(=O)c1cn(C)nc1C(F)F [Compound G-4] | ≥ 70 | ≥ 70 | –
21 | Cc1ccc(C)c(CCNC(=O)c2cccnc2Cl)c1 [Compound E-1] | ≥ 70 | – | –
22 | Cn1cc(C(=O)NCCc2c(Cl)cc(C(F)(F)F)cc2Cl)c(C(F)F)n1 [Compound G-11] | – | ≥ 70 | pest or weed control at 330 ppm [2]: ≥ 50%
23 | COc1ccc(Br)cc1CCNC(=O)c1cn(C)nc1C(F)F [Compound G-10] | ≥ 70 | – | –
24 | Cc1occc1C(=O)NCCc1ccc(Cl)cc1Cl [Compound C-1] | – | – | pest or weed control at 500 ppm [2]: ≥ 50%
25 | Cc1ccc(CCNC(=O)c2cccnc2Cl)c(C)c1 [Compound E-9] | ≥ 70 | – | –

Reference: patent publication US9440946B2, “N-phenethylcarboxamide derivatives” (BAYER INTELLECTUAL PROPERTY GMBH, priority 2005, dated 2016)
